US9247741B2, “Use of macrocyclic picolinamides as fungicides” (DOW AGROSCIENCES LLC, priority 2013, dated 2016)
Like-named read-outs stand apart in the source and are kept apart here.

Key:
Format in all cases: in vivo
[1] = system: Mycosphaerella graminicola; Anamorph: Septoria tritici; experiment: Leaf blotch of wheat (SEPTTR) disease control on wheat seedlings; settings: Zymoseptoria tritici, wheat; for pest or weed control at 121.5 g/ha: 121.5 g/H (low volume track spray); for pest or weed control at 100 ppm: 100 ppm (high volume)
Procedure: Evaluation of Fungicidal Activity: Leaf Blotch of Wheat (Mycosphaerella graminicola; Anamorph: Septoria tritici; Bayer Code […]) Technical grades of materials were dissolved in acetone, which were then mixed with nine volumes of water containing 110 ppm Triton X-100. The fungicide solutions were applied onto wheat seedlings using an automated booth sprayer to run-off. All sprayed plants were allowed to air dry prior to further handling. All fungicides were evaluated using the aforementioned method for their activity vs. all target diseases. Wheat leaf blotch and brown rust activity were also evaluated using track spray applications, in which case the fungicides were formulated as EC formulations, containing 0.1% Trycol 5941 in the spray solutions. Wheat plants (variety Yuma) were grown from seed in a greenhouse in 50% mineral soil/50% soil-less Metro mix until the first leaf was fully emerged, with 7-10 seedlings per pot. These plants were inoculated with an aqueous spore suspension of Septoria tritici either prior to or after fungicide treatments. After inoculation the plants were kept in 100% relative humidity (one day in a dark dew chamber followed by two to three days in a lighted dew chamber at 20° C.) to permit spores to germinate and infect the leaf. The plants were then transferred to a greenhouse set at 20° C. for disease to develop. When disease symptoms were fully expressed on the l^st leaves of untreated plants, infection levels were assessed on a scale of 0 to 100 percent disease severity. Percent disease control was calculated using the ratio of disease severity on treated plants relative to untreated plants.

[2] = system: Blumeria graminis Fsp. Hordei; experiment: Barley powdery mildew (ERYSGH) disease control; settings: 24 h, 1 Day Protectant, read-out: ERYSGH disease control rating
Procedure: Technical grades of materials were dissolved in acetone, which were then mixed with nine volumes of water containing 110 ppm Triton X-100. The fungicide solutions were applied onto wheat seedlings using an automated booth sprayer to run-off. All sprayed plants were allowed to air dry prior to further handling. All fungicides were evaluated using the aforementioned method for their activity vs. all target diseases. Wheat leaf blotch and brown rust activity were also evaluated using track spray applications, in which case the fungicides were formulated as EC formulations, containing 0.1% Trycol 5941 in the spray solutions. Wheat plants (variety Yuma) were grown from seed in a greenhouse in 50% mineral soil/50% soil-less Metro mix until the first leaf was fully emerged, with 7-10 seedlings per pot. These plants were inoculated with an aqueous spore suspension of Septoria tritici either prior to or after fungicide treatments. After inoculation the plants were kept in 100% relative humidity (one day in a dark dew chamber followed by two to three days in a lighted dew chamber at 20° C.) to permit spores to germinate and infect the leaf. The plants were then transferred to a greenhouse set at 20° C. for disease to develop. When disease symptoms were fully expressed on the l^st leaves of untreated plants, infection levels were assessed on a scale of 0 to 100 percent disease severity. Percent disease control was calculated using the ratio of disease severity on treated plants relative to untreated plants. Evaluation of Fungicidal Activity: Barley Powdery Mildew (Blumeria graminis Fsp. Hordei; Synonym: Erysiphe graminis Fsp. Hordei; Bayer Code […]) Barley seedlings (variety Harrington) were propagated in soil-less Metro mix, with each pot having 8 to 12 plants, and used in the test when first leaf was fully emerged. Test plants were inoculated by dusting with infected stock plants 24 hr after fungicide treatments. After inoculation the plants were kept in a greenhouse set at 20° C. for disease to develop. Fungicide formulation, application and disease assessment on the sprayed leaves followed the procedures as described in the Example A.

Leptosphaeria nodorum = experiment: Wheat glume blotch (LEPTNO) disease control; settings: Parastagonospora nodorum, 24 h, 1 Day Protectant, read-out: LEPTNO disease control rating
Procedure: Technical grades of materials were dissolved in acetone, which were then mixed with nine volumes of water containing 110 ppm Triton X-100. The fungicide solutions were applied onto wheat seedlings using an automated booth sprayer to run-off. All sprayed plants were allowed to air dry prior to further handling. All fungicides were evaluated using the aforementioned method for their activity vs. all target diseases. Wheat leaf blotch and brown rust activity were also evaluated using track spray applications, in which case the fungicides were formulated as EC formulations, containing 0.1% Trycol 5941 in the spray solutions. Wheat plants (variety Yuma) were grown from seed in a greenhouse in 50% mineral soil/50% soil-less Metro mix until the first leaf was fully emerged, with 7-10 seedlings per pot. These plants were inoculated with an aqueous spore suspension of Septoria tritici either prior to or after fungicide treatments. After inoculation the plants were kept in 100% relative humidity (one day in a dark dew chamber followed by two to three days in a lighted dew chamber at 20° C.) to permit spores to germinate and infect the leaf. The plants were then transferred to a greenhouse set at 20° C. for disease to develop. When disease symptoms were fully expressed on the l^st leaves of untreated plants, infection levels were assessed on a scale of 0 to 100 percent disease severity. Percent disease control was calculated using the ratio of disease severity on treated plants relative to untreated plants. Evaluation of Fungicidal Activity: Wheat Glume Blotch (Leptosphaeria nodorum; Bayer Code […]) Wheat plants (variety Yuma) were grown from seed in a greenhouse in 50% mineral soil/50% soil-less Metro mix until the first leaf was fully emerged, with 7-10 seedlings per pot. These plants were inoculated with an aqueous spore suspension of Leptosphaeria nodorum 24 hr after fungicide treatments. After inoculation the plants were kept in 100% relative humidity (one day in a dark dew chamber followed by two days in a lighted dew chamber at 20° C.) to permit spores to germinate and infect the leaf. The plants were then transferred to a greenhouse set at 20° C. for disease to develop. Fungicide formulation, application and disease assessment followed the procedures as described in the Example A.

[3] = 24 h, 1 Day Protectant, read-out: SEPTTR 1DP disease control rating
[4] = 72 h, 3 Day Curative, read-out: SEPTTR 3DC disease control rating

## CCCC[C@H]1[C@H](C)OC(=O)[C@@H](NC(=O)c2nccc(OC)c2OCOC(C)=O)CCC[C@@H]1Oc1ccccc1 [Compound 33]
[1]; [3]
  pest or weed control at 121.5 g/ha: > 70%
[1]; [4]
  pest or weed control at 121.5 g/ha: > 70%
[2]
  pest or weed control at 100 ppm: > 70%
Leptosphaeria nodorum
  pest or weed control at 100 ppm: > 70%

## COc1ccnc(C(=O)N[C@H]2CCC[C@H](OCC3CC3)[C@@H](Cc3ccc(F)cc3)[C@H](C)OC2=O)c1OCOC(C)=O [Compound 61]
[1]; [3]
  pest or weed control at 121.5 g/ha: > 70%
[1]; [4]
  pest or weed control at 121.5 g/ha: > 70%
[2]
  pest or weed control at 100 ppm: < 70%
Leptosphaeria nodorum
  pest or weed control at 100 ppm: > 70%

## CCCO[C@H]1CCC[C@H](NC(=O)c2nccc(OC)c2OC(C)=O)C(=O)O[C@@H](C)[C@@H]1CCC(C)C [Compound 74, 2-(((3S,7S,8S,9S)-8-isopentyl-9-methyl-2-oxo-7-propoxyoxonan-3-yl)carbamoyl)-4-methoxypyridin-3-yl acetate]
[1]; [3]
  pest or weed control at 121.5 g/ha: > 70%
[1]; [4]
  pest or weed control at 121.5 g/ha: > 70%
[2]
  pest or weed control at 100 ppm: < 70%
Leptosphaeria nodorum
  pest or weed control at 100 ppm: > 70%

## CCCC[C@H]1[C@H](C)OC(=O)[C@@H](NC(=O)c2nccc(OC)c2OCOC(C)=O)CCC[C@@H]1OCC1CC1 [Compound 73]
[1]; [3]
  pest or weed control at 121.5 g/ha: > 70%
[1]; [4]
  pest or weed control at 121.5 g/ha: > 70%
[2]
  pest or weed control at 100 ppm: > 70%
Leptosphaeria nodorum
  pest or weed control at 100 ppm: > 70%

## CCCO[C@H]1CCC[C@H](NC(=O)c2nccc(OC)c2OCOC(C)=O)C(=O)O[C@@H](C)[C@@H]1CCC(C)C [Compound 25, ((2-(((3S,7S,8S,9S)-8-isopentyl-9-methyl-2-oxo-7-propoxyoxonan-3-yl)carbamoyl)-4-methoxypyridin-3-yl)oxy)methyl acetate]
[1]; [3]
  pest or weed control at 121.5 g/ha: < 70%
[1]; [4]
  pest or weed control at 121.5 g/ha: > 70%
[2]
  pest or weed control at 100 ppm: > 70%
Leptosphaeria nodorum
  pest or weed control at 100 ppm: > 70%

## CCCO[C@H]1CCC[C@H](NC(=O)c2nccc(OC)c2OC(C)=O)C(=O)O[C@@H](C)[C@@H]1Cc1ccccc1 [Compound 70]
[1]; [3]
  pest or weed control at 100 ppm: > 70%
  pest or weed control at 121.5 g/ha: > 70%
[1]; [4]
  pest or weed control at 100 ppm: > 70%
  pest or weed control at 121.5 g/ha: > 70%
[2]
  pest or weed control at 100 ppm: < 70%
Leptosphaeria nodorum
  pest or weed control at 100 ppm: > 70%

## COc1ccnc(C(=O)N[C@H]2CCC[C@H](Oc3ccccc3)[C@@H](CCC(C)C)[C@H](C)OC2=O)c1OC(C)=O [Compound 36]
[1]; [3]
  pest or weed control at 121.5 g/ha: > 70%
[1]; [4]
  pest or weed control at 121.5 g/ha: > 70%
[2]
  pest or weed control at 100 ppm: > 70%
Leptosphaeria nodorum
  pest or weed control at 100 ppm: > 70%

## COc1ccnc(C(=O)N[C@H]2CCC[C@H](Oc3ccccc3)[C@@H](CCC(C)C)[C@H](C)OC2=O)c1OCOC(C)=O [Compound 40]
[1]; [3]
  pest or weed control at 121.5 g/ha: > 70%
[1]; [4]
  pest or weed control at 121.5 g/ha: > 70%
[2]
  pest or weed control at 100 ppm: > 70%
Leptosphaeria nodorum
  pest or weed control at 100 ppm: > 70%
